From article PMC6468747 (Cancers, 2019)
Like-named read-outs stand apart in the source and are kept apart here. Each block holds one compound with its values, some of them ahead of it.

Legend:
Mnk1 = target: T1, Mnk1 (Homo sapiens, UniProt Q9BUB5); assay: Streptavidin-agarose pull-down with biotinylated VNLG-152R; assay type: binding; conditions: 50 µg
T1 construct: incubated with recombinant full length Mnk1 proteins or cell lysates overnight at 4 °C; GST
Protocol: The streptavidin–agarose pull-down assay was performed as described previously. Biotin-VNLG-152R (50 µg) and biotin (50 µg; negative control) were preincubated with streptavidin agarose beads (Invitrogen, Waltham, MA, USA) overnight at 4 °C. The biotin-VNLG-152R-conjugated beads were washed three times with cold PBS and then incubated with recombinant full length Mnk1 proteins or cell lysates overnight at 4 °C. The bead-bound proteins were incubated and separated on a 10% SDS-PAGE and detected by western blot analysis for Mnk1.

[1] = 14-day oral toxicity / MTD study; set-up: species or system female athymic nude mice; conditions: mouse, in vivo, po
Protocol: Three different doses, i.e., 10, 25, and 50 mg/kg/day (formulated in 40% β-cyclodextrin in saline) of each compound were administered daily by oral gavage for 14 days. Each group consisted of 3 mice. Their body weight kinetics (loss in body weight, a clinical sign of toxicity) was observed during the 14 days of dosing following established procedures. Changes in body weight were scored on a scale of 0–4 as follows: (1) Weight loss: (10 g = 4, 7–9 g = 3, 4–6 g = 2, 1–3 g = 1; severe = 3, moderate = 2, slight = 1, none = 0).

[2] = Plasma pharmacokinetics after single IV and PO dosing; assay type: in vivo, female CD1 mice; conditions: mouse, in vivo
Protocol: 5. In vivo Pharmacokinetics (PK) Determination: These studies were Performed by Charles River Laboratories (CRL), Discovery Services, 251 Ballardvale Street, Wilmington, MA 01887, USA.
The PK studies were performed according to the guidelines and approval of CRL Institutional Animal Care and Use Committee (IACUC) under IACUC approval no: P04172013.
A total of sixty‐four naïve female CD‐1 mice (including 6 spare animals) were received from Charles River Laboratories, Kingston, NY. Following an acclimation period, the animals were assigned to the study based on acceptable health as determined by a staff veterinarian. For dosing, animals were placed into six groups as detailed in the study design table below. All animals were fasted overnight prior to dosing and food was returned after the 4‐h post‐dose blood collections.
Each animal in Groups 1, 3 and 5 received a single administration of prepared test article by intravenous tail administration at a target dose level of 2 mg/kg and dose volume of 10 mL/kg. Each animal in Groups 2, 4 and 6 received a single administration of prepared test article by oral gavage at a target dose level of 20 mg/kg and at a dose volume of 10 mL/kg. Dosing was performed on August 13, 2015 as detailed in the study protocol and was completed without incident. Dose administration […]
Following dosing and at each sample collection time
Group Mices Test Compound Level Conc. Volume Dose Vehicle Route […]
Interim blood samples were collected in a leapfrog design from each animal by puncture of a submandibular vein and a terminal blood sample was collected from each animal by intracardiac puncture following euthanasia with CO2 as outlined in the sample collection table below.
All blood samples were transferred into tubes containing K2EDTA anticoagulant and placed on wet ice immediately after collection until centrifuged at 2200 × g for 10 min at […] to isolate plasma.
The resulting plasma was transferred to individual polypropylene tubes in a 96‐well plate format and immediately placed on dry ice until storage at nominally […] before transfer to the Test Facility’s bioanalysis group for concentration and HPLC analysis. Individual blood collection times are […]
Table S4. Sample Collections.
Collection Information Whole Blood for Plasma Whole Blood for Plasma
Subgroup A (n = 3) 5 min & 1 h post‐dose 8 h post‐dose
Subgroup B (n = 3) 15 min & 4 h post‐dose 12 h post‐dose
Subgroup C (n = 3) 30 min & 6 h post‐dose 24 h post‐dose
Subgroup D (n = 2) Not applicable 2 h post‐dose
Subgroup A (n = 3) 15 min & 2 h post‐dose 8 h post‐dose
Subgroup B (n = 3) 30 min & 4 h post‐dose 12 h post‐dose
Subgroup C (n = 3) 1 hr & 6 h post‐dose 24 h post‐dose
Collection conditions K2EDTA K2EDTA
Collection route Submandibular Intracardiac puncture
Volume/Time point 100 μL Maximum volume
The plasma samples for Groups 1‐6, Subgroups A‐C were analyzed for test article concentration using a Research Grade LC MS/MS Assay (RGA‐Level 1). The bioanalytical report, including plasma […]
Pharmacokinetic parameters were estimated from the plasma concentration‐time data using standard non‐compartmental methods and utilizing suitable analysis software (Watson 7.2 Bioanalytical LIMS, Thermo Electron Corp). Parameters were estimated using nominal sampling times relative to the start of each dose administration (within an acceptable tolerance limit).
Concentrations below the limit of quantification were excluded from the pharmacokinetic analysis.
The area under the plasma test item concentration versus time curve (AUC) was calculated using the linear‐log‐linear trapezoidal method. When practical, the terminal elimination phase of each concentration versus time curve was identified using at least the final three observed concentration values. The slope of the terminal elimination phase was determined using log linear regression on the unweighted concentration data.
Parameter Description of Parameter […]

[3] = tested on: panel of 6 human TNBC cell lines; assay: MTT cell growth assay, summary over the panel; assay type: cell-based; conditions: 7 days
Protocol: Figure 3 In vitro characterization, pharmacokinetics and toxicity profile of VNLG-152R and its two enantiomers. (A) HPLC chromatograms racemic VNLG-152R (left panel) and the resolved enantiomers VNLG-152E1 and VNLG-152E2 (right panel). The conditions of HPLC procedure are presented in Supplementary Materials. (B) Table summarizing GI50 values (µM) each cell line treated with VNLG-152R and its enantiomers. TNBC cell subtypes were treated with listed compound (0.1 nmol/L–100 µmol/L) for 7 days and the GI50 values for the anti-proliferative effects of the compounds were determined from dose response curves (by a nonlinear regression analysis using Graph Pad Prism). Data represents the results from six independent experiments for each cell line. (C) Plasma concentration versus time profile after intravenous (IV, 2 mg/kg each, top panel) or oral (PO, 20 mg/kg each, bottom panel) of VNLG-152R (red), VNLG-152E1 (purple) and VNLG-152E2 (blue) to female CD1 mice. Values represent the mean plasma concentrations from three mice per time point. (D) Table of the pharmacokinetic parameters of various compounds after IV and PO dosing. AUC = area under the curve, T1/2 = elimination half-life, Cmax = maximum plasma concentration, F (%) = oral bioavailability. (E) Effects of VNLG-152R, VNLG-152E1 and VNLG-152E2 on body weight and clinical observations at chronic dose termination of study. Three different doses, i.e., 10, 25, and 50 mg/kg/day (formulated in 40% β-cyclodextrin in saline) of each compound were administered daily by oral gavage for 14 days. Each group consisted of three mice. Loss in body weight, a clinical sign of toxicity was observed during the 14 days of dosing and the maximum tolerated dose (MTD) was estimated following established procedures. Changes in body weight were scored on a scale of 0–4 as follows as described under methods. […]

MDA-MB-231 xenografts = assay: MDA-MB-231 xenograft, racemate vs enantiomers, IP vs PO; assay type: in vivo, nude mice; conditions: 20 mg/kg per day PO, 36 days
Protocol: The second experiment designed to compare heal-to-head IP versus oral dosing (PO) and the efficacy of racemic VNLG-152 versus its two enantiomers was like that described above but consisted of eight groups. When the tumor volumes had reached about 100 mm^3, the mice were randomly divided into 8 groups of 5 mice each. The two control groups received vehicle (IP or OP) and the other six groups received VNLG-152R (20 mg/kg, IP or PO, once daily), VNLG-152E1 (20 mg/kg, IP or PO, once daily), and VNLG-152E2 (20 mg/kg, IP or PO, once daily) five days/week. These treatments continued for 36 days and the tumors were measured and processed as described above.

Br-001 xenograft tumors = assay: Patient-derived TNBC xenograft (PDX), PO, racemate vs E1; assay type: in vivo, NSG mice; conditions: 20 mg/kg PO
Protocol: The second PDX tumor model experiment was conducted to assess the efficacy of VNLG-152R versus VNLG-152E1 following PO administration. When the tumor volumes had reached about 100 mm^3, the mice were randomly divided into three groups of five mice each. The control group received vehicle (PO) and the other two groups received VNLG-152R (20 mg/kg, PO, once daily), and VNLG-152E1 (20 mg/kg, PO, once daily) five days/week. These treatments continued for 15 days and the tumors were measured and processed as described above.

MDA-MB-231 cells [4] = assay: Head-to-head MTT antiproliferative assay, 6-day exposure; assay type: cell-based, human; conditions: Homo sapiens, MDA-MB-231, 144 h
Protocol: (§1) Figure 2 VNLG-152R inhibits mTORC1 signaling and the production of pro-inflammatory cytokines. (A) MDA-MB-231 and MDA-MB-468 cells were treated with the indicated concentrations of VNLG-152R for 72 h. Cell lysates were analyzed by immunoblotting with the indicated antibodies. (B) Head-to-head antiproliferative effects of VNLG-152R and eFT508 on MDA-MB-231 and MDA-MB-468 cells. The dose-response curves were generated from MTT assays after 6-day exposure to different concentrations of the compounds. Each point is a mean of replicates from three independent experiments. (C–E) MDA-MB-231 cell were treated with the indicated concentration of VNLG-152R or eFT508 for 72 h. Cell supernatants were collected, and the indicated cytokines were quantitated by Multiplex Luminex assay.
(§2) Cell growth inhibition assay was performed as described previously. For cell growth experiment, cells were treated with the VNLG-152R, VNLG-152E1 or VNLG-15E2 for 7 days. MTT assay was performed at the end of the experiment. Results represent the mean ± standard deviation of three independent experiments.

MDA-MB-468 cells = assay: as above; assay type: cell-based, human; conditions: Homo sapiens, MDA-MB-468, 144 h
Protocol: as §1, §2

MDA-MB-231 cells [5] = assay: Multiplex Luminex supernatant cytokine analysis; assay type: cell-based, human; conditions: 72 h, cell supernatants
Protocol: Supernatants from the MDA-MB-231 (TNBC) cells in Fetal Bovine Serum (FBS) containing media were treated with various concentrations of VNLG-12R for 72 h, were collected, and various cytokines and growth factor concentrations (CLCX-1, IL-6, IL8 and TNF-α) were determined by Luminex multiplex assay kit (Millipore, Billerica, MA, USA) according to the manufacturer’s instructions. The expressions of secreted cytokines were read on Luminex 100 reader. The data was then analyzed using the BioPlex Software (BioRad, Hercules, CA, USA). The Luminex multiplex assays were conducted at the University of Maryland School of Medicine Cytokine Core Laboratory (Baltimore, MD, USA).

[6] = mean over 6 TNBC cell lines, read-out: average GI50
[7] = range over 6 TNBC cell lines, read-out: range of GI50

T1 sequence (Q9BUB5 whole entry): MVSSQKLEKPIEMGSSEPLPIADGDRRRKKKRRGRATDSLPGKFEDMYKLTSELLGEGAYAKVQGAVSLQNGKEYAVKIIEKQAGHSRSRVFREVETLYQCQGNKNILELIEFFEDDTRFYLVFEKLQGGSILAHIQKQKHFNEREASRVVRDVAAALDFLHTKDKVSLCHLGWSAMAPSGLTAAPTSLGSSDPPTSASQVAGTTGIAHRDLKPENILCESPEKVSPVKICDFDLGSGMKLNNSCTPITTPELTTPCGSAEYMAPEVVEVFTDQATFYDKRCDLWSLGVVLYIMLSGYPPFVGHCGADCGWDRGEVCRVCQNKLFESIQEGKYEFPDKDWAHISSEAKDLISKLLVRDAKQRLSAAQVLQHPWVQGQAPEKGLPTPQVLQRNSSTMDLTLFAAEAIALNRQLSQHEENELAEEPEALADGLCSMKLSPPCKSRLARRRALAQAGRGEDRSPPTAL

SMILES: CC1=C(/C=C/C(C)=C/C=C/C(C)=C/C(=O)N(CCOC(=O)CCCC[C@@H]2SC[C@@H]3NC(=O)N[C@@H]32)c2ccc(F)cc2)C(C)(C)CCC1n1ccnc1 (stereo partly drawn) [VNLG-152R-biotin]
- Mnk1 captured in streptavidin pull-down (Mnk1; MDA-MB-231 cells): direct binding of Mnk1 to VNLG-152R-biotin in MDA-MB-231 cells
- Mnk1 captured in streptavidin pull-down (Mnk1; recombinant Mnk1 protein): substantial amounts of Mnk1 was found only in the VNLG-152R-biotin-treated sample

SMILES: CC1=C(/C=C/C(C)=C/C=C/C(C)=C/C(=O)Nc2ccc(F)cc2)C(C)(C)CCC1n1ccnc1 (single isomer, unassigned) [VNLG-152E2]
- maximum tolerated dose (MTD) [1]: > 50 mg/kg
- F (%) oral bioavailability [2]: 72.8%
- AUC(0-inf) ([2]; iv, 2 mg/kg): 1840 ng·h/mL
- T1/2 ([2]; iv, 2 mg/kg): 1.10 h
- AUC(0-inf) ([2]; po, 20 mg/kg): 13400 ng·h/mL
- Cmax ([2]; po, 20 mg/kg): 3590 ng/mL
- T1/2 ([2]; po, 20 mg/kg): 4.02 h
- GI50 [3, 6]: 390 nM
- GI50 [3, 7]: 100 to 1170 nM

SMILES: CC1=C(/C=C/C(C)=C/C=C/C(C)=C/C(=O)Nc2ccc(F)cc2)C(C)(C)CCC1n1ccnc1 (single isomer, unassigned) [VNLG-152E1]
- maximum tolerated dose (MTD) [1]: > 50 mg/kg
- F (%) oral bioavailability [2]: 161.9%
- AUC(0-inf) ([2]; iv, 2 mg/kg): 2100 ng·h/mL
- T1/2 ([2]; iv, 2 mg/kg): 1.78 h
- AUC(0-inf) ([2]; po, 20 mg/kg): 34000 ng·h/mL
- Cmax ([2]; po, 20 mg/kg): 4880 ng/mL
- T1/2 ([2]; po, 20 mg/kg): 4.49 h
- GI50 [3, 6]: 2300 nM
- GI50 [3, 7]: 980 to 4790 nM
- TGI (MDA-MB-231 xenografts): 78%
- changes in body weights (Br-001 xenograft tumors): No changes in body weights were observed
- TGI (Br-001 xenograft tumors; 5 days per week, 15 days): 79%

- GI50 (MDA-MB-231 cells [4]): 7070 nM
- GI50 (MDA-MB-468 cells): 52500 nM
SMILES: Cc1cc(Nc2cc(N)ncn2)c(=O)n2c1C(=O)NC21CCCCC1.Cl [eFT508, 6′-[(6-aminopyrimidin-4-yl)amino]-8′-methyl-2′Hspiro[cyclohexane-1,3′-imidazo-[1,5-a]pyridine]-1′,5′-dione hydrochloride (1:1), reference compound]
- secreted IL-6 and IL-8, TNFα and chemokine CXCL1 (MDA-MB-231 cells [5]): dose-dependent reduction
- secretion of CXCL1 (MDA-MB-231 cells [5]): seem to stimulate secretion of CXCL1
